US20120245137A1 (Zalicus Pharmaceuticals Ltd., priority 2009, published 2012)
Where two headings read alike, the source gives them in different places.

Assays:
Assay type in all cases: cell-based
Human Cav 2.2 channels = Human Cav 2.2 channels (Homo sapiens, UniProt Q00975); assay: Fluorescent assay for CaV2.2 channels using potassium depolarization (VIPR/FLIPR); conditions: FLIPR data; for CAv2.2 IC50 Ratio closed/inact.: ratio closed/inactivated IC50
How it was run: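 HEK293 cells stably expressing human Cav2.2 with α2δ and β subunits plus Kir2.3 were loaded with fluo-4 and incubated 30 min at 25 °C with compound in 4, 12, 25 or 30 mM potassium buffer. Channels were opened with 70 mM potassium (final) and calcium influx was read by fluorescence (Ex 480/Em 535 nm).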

CAv1.2 = CAv1.2 (Homo sapiens, UniProt Q13936); assay: FLIPR data, CAv1.2 channel blocking (Table 6); conditions: for CAv1.2 IC50 Ratio closed/inact.: ratio closed/inactivated IC50
T-type calcium channel [1] = molecular target: T-type calcium channel (Homo sapiens, UniProt O43497); assay: T-type channel blocking, FLIPR data (Table 6); conditions: CAv3.1
Text: (§1) Another method, high-throughput spectrophotometric assay, utilizes loading of the cell lines with a fluorescent dye sensitive to intracellular calcium concentration and subsequent examination of the effects of compounds on the ability of depolarization by potassium chloride or other means to alter intracellular calcium levels.

T-type calcium channel [2] = molecular target: T-type calcium channel (Homo sapiens, UniProt O95180); assay: T-type channel blocking, FLIPR data (Table 6); conditions: for CAv3.2 IC50 Ratio closed/inact.: CAv3.2, ratio closed/inactivated IC50
Text: as §1

[3] = closed state, read-out: CAv2.2 IC50 Closed
[4] = inactivated state, read-out: CAv2.2 IC50 Inact.
[5] = closed state, read-out: CAv1.2 IC50 Closed
[6] = inactivated state, read-out: CAv1.2 IC50 Inact.
[7] = CAv3.2, closed state, read-out: CAv3.2 IC50 Closed
[8] = CAv3.2, inactivated state, read-out: CAv3.2 IC50 Inact.

Chain of CAv1.2 (Q13936 whole entry): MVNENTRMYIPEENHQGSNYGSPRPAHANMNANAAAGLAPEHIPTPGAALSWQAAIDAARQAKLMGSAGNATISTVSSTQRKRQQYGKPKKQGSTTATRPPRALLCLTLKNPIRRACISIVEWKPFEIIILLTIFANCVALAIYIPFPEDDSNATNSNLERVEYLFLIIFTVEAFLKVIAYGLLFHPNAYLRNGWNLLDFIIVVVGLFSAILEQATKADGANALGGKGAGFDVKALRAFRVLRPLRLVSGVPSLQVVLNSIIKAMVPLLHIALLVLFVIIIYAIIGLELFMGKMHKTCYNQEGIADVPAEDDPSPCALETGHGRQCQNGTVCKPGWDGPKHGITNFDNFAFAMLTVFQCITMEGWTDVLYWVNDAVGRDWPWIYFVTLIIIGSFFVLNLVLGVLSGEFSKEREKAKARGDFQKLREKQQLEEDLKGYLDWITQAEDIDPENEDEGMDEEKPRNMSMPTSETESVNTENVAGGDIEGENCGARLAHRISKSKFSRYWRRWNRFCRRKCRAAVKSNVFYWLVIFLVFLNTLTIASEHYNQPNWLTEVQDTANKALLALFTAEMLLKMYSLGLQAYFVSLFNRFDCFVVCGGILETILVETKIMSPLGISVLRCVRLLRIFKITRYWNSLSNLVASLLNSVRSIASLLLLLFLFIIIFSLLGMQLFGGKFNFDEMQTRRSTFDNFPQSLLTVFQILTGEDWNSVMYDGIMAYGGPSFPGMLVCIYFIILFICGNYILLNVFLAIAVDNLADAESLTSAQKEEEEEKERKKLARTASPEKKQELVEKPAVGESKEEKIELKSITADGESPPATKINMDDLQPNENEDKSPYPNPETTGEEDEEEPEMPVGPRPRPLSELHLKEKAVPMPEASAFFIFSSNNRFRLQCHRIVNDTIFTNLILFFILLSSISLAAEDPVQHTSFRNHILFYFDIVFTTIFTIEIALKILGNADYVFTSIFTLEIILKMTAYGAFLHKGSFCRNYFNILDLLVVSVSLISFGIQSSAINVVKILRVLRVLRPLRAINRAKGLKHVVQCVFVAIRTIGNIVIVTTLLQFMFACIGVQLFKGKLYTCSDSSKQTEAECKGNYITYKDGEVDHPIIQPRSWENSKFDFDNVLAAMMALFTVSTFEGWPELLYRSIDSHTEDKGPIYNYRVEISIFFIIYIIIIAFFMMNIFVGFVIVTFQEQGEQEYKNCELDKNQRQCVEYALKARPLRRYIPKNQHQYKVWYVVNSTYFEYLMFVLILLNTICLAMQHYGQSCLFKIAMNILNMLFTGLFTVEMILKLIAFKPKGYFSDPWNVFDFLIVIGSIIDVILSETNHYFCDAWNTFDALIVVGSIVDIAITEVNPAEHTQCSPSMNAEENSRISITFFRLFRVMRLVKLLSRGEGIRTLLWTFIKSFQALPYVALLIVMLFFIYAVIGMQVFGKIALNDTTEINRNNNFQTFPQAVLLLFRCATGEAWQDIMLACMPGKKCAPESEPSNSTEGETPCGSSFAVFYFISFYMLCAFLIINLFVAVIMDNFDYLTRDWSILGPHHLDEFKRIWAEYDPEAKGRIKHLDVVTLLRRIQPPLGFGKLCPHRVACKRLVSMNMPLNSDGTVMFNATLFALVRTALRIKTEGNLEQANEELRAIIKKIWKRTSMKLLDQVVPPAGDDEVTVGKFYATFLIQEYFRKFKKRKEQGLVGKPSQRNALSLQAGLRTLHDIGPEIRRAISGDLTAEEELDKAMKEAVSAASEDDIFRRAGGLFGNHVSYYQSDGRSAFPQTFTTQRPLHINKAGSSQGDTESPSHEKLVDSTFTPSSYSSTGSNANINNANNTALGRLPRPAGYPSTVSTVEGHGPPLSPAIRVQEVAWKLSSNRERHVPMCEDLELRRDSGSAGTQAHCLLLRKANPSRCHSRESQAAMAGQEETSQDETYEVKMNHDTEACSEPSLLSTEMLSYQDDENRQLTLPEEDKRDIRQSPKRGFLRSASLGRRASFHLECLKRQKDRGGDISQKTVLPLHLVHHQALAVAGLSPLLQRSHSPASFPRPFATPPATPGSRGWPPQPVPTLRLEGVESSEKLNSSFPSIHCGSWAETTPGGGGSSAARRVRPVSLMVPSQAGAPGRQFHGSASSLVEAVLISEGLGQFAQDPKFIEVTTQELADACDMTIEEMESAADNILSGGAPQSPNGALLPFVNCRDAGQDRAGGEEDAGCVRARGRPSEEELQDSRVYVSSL
Chain of CAv1.2 (P54289 25-1103 partner): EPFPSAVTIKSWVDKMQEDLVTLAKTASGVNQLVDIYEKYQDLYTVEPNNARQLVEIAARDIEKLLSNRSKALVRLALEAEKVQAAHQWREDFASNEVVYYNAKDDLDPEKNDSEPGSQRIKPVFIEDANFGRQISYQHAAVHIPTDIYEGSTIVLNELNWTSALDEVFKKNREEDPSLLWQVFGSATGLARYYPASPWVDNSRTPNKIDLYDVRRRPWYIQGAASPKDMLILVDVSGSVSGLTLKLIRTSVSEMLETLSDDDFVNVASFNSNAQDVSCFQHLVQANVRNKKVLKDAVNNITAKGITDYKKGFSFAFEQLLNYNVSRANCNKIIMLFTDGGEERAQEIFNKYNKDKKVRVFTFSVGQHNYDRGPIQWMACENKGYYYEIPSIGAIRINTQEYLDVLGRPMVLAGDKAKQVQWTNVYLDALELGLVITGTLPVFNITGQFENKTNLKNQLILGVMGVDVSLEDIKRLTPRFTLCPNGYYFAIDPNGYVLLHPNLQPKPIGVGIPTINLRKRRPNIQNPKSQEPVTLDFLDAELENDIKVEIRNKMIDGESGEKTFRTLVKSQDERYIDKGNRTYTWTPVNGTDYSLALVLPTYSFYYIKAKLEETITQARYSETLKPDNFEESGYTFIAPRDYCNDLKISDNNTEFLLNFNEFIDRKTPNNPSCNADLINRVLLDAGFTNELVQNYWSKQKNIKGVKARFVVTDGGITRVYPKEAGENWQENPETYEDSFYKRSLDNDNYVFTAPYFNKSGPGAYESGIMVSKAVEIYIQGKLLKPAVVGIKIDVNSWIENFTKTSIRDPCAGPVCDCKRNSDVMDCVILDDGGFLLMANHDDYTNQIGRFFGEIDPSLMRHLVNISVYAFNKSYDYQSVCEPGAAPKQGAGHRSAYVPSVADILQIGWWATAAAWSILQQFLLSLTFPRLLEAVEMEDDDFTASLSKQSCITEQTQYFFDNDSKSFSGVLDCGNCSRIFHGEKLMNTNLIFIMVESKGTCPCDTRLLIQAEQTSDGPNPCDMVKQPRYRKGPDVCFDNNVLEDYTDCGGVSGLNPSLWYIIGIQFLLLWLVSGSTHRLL
Chain of CAv1.2 (Q08289 whole entry partner): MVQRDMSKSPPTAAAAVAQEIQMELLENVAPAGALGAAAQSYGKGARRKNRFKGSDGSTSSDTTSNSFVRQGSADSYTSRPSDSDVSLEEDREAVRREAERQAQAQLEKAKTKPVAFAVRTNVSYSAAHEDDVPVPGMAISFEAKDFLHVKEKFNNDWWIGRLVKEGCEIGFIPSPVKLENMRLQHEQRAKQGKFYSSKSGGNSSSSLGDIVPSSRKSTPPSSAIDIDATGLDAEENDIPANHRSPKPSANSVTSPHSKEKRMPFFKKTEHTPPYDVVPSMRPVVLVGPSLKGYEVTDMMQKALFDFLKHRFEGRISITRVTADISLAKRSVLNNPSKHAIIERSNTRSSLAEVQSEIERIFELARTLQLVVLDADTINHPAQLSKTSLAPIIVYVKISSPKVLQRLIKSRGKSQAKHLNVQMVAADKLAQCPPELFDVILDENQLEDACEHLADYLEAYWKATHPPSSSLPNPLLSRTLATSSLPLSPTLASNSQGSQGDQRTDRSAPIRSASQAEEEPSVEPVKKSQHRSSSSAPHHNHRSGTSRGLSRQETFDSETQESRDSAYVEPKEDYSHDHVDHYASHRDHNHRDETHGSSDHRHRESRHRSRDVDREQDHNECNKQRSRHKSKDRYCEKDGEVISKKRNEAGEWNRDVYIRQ

Row | Structure (SMILES) | IC50 (Human Cav 2.2 channels; [3]) [µM] | IC50 (Human Cav 2.2 channels; [4]) [µM] | CAv2.2 IC50 Ratio closed/inact. (Human Cav 2.2 channels) | IC50 (CAv1.2; [5]) [µM] | IC50 (CAv1.2; [6]) [µM] | CAv1.2 IC50 Ratio closed/inact. (CAv1.2) | IC50 (T-type calcium channel [1]) [µM] | IC50 (T-type calcium channel [2]; [7]) [µM] | IC50 (T-type calcium channel [2]; [8]) [µM] | CAv3.2 IC50 Ratio closed/inact. (T-type calcium channel [2])
1 | CC(C)([C@H]1C[C@H](Nc2ccnc(C(F)(F)F)n2)C1)S(=O)(=O)c1cccc(OC(F)(F)F)c1 [Compound 647] | 4.17 | 0.86 | 4.8 | 6.55 | 1.08 | 6.1 | 3.27 | 2.99 | 2.59 | 1.2
2 | CC(C)([C@H]1C[C@@H](Nc2ccnc(C(F)(F)F)n2)C1)S(=O)(=O)c1cc(F)cc(C(F)(F)F)c1 [Compound 648] | 5.05 | 0.99 | 5.1 | 8.41 | 2.28 | 3.7 | 2.81 | 5.14 | 4.1 | 1.3
3 | CC(C)([C@H]1C[C@H](Nc2ccnc(C(F)(F)F)n2)C1)S(=O)(=O)c1cc(F)cc(C(F)(F)F)c1 [Compound 649] | 4.83 | 1.19 | 4.1 | 6.39 | 1.81 | 3.5 | 3.13 | 2.4 | 2.74 | 0.9
4 | O=S(=O)(c1cccc(OC(F)(F)F)c1)[C@H]1C[C@@H](CNc2ccnc(C(F)(F)F)n2)C1 [Compound 650] | 9.9 | 1.88 | 5.3 | 9.1 | 3.51 | 2.6 | 7.29 | 2.27 | 2.69 | 0.8
5 | O=S(=O)(c1cc(F)cc(C(F)(F)F)c1)[C@H]1C[C@@H](CNc2ccnc(C(F)(F)F)n2)C1 [Compound 651] | 10 | 3.26 | 3.1 | 9.21 | 3.86 | 2.4 | 9.04 | 6.41 | 3.59 | 1.8
6 | CC(C)([C@H]1C[C@@H](NC(=O)CC2(N)CCCCC2)C1)S(=O)(=O)c1cc(F)cc(C(F)(F)F)c1 [Compound 653] | 10 | 1.36 | 7.4 | – | ≥ 10 | – | ≥ 10 | – | 10 | –
7 | CNC1(CC(=O)NCc2ccc(S(=O)(=O)c3cccc(C(F)(F)F)c3)cc2)CCCCC1 [Compound 660] | 3.56 | 0.61 | 5.8 | 7.48 | 4.93 | 1.5 | ≥ 10 | ≥ 10 | 10 | 1
8 | CC(C)([C@H]1C[C@H](NS(=O)(=O)c2ccc(C(F)(F)F)cc2)C1)S(=O)(=O)c1cccc(C(F)(F)F)c1 [Compound 663] | 9.19 | 0.87 | 10.6 | ≥ 10 | 2.98 | 3.4 | 2.01 | 2.94 | 1.53 | 1.9
9 | CC(C)([C@H]1C[C@H](NS(=O)(=O)c2ccc(F)c(Cl)c2)C1)S(=O)(=O)c1cccc(C(F)(F)F)c1 [Compound 664] | 8.05 | 1.06 | 7.6 | ≥ 10 | 3.67 | 2.7 | 2.93 | 3.08 | 2.79 | 1.1
10 | CC(C)([C@H]1C[C@H](NS(=O)(=O)c2ccc(Cl)c(F)c2)C1)S(=O)(=O)c1cccc(C(F)(F)F)c1 [Compound 665] | 7.26 | 0.8 | 9.1 | 8.94 | 4.21 | 2.1 | 2.77 | 3.03 | 2.66 | 1.1
